Counter-ions that a name gives are not always drawn.
What was measured:
log D = format: physicochemical
[1] = cited from earlier work
E. coli ARC2687 = experiment: Neutropenic mouse thigh infection model; format: in vivo; conditions: CPDP alone, po, q6h
[2] = biological target: class A, C, and D serine β-lactamases; experiment: β-lactamase inhibition, statements over the enzyme panel; format: biochemical; conditions: 60 min; TEM-1, AmpC, OXA-48; read-out: IC50 against β-lactamases, all values
Protocol: The spectrum of class A, C, and D β-lactamase inhibition by ETX1317 was evaluated by measuring its ability to protect the β-lactamase substrate nitrocefin from degradation using previously described methods.[13]
The methods used to measure inhibition of β-lactamases were the same as those described in the supplement to Durand-Reville et al.[13] Reaction progress curves at 490 nm for hydrolysis of the chromogenic β-lactamase substrate nitrocefin (SynGene, Bangalore, India) at 100 μM were measured for a range of inhibitor concentrations in 0.1 M sodium phosphate (pH 7.0), 10 mM NaHCO3, and 0.005% Triton X-100 at ambient temperature using a Spectramax absorbance plate reader (Molecular Devices, Sunnyvale, CA). The set of 12 progress curves were fit globally to a second-order kinetic model of enzyme inactivation. […] The second-order inactivation rate constant kinact/Ki was calculated from the set of progress curves using Global Kinetic Explorer (Kintek) as previously described.[13]

E. coli TEM-1 (Class A) = E. coli TEM-1 (Class A) (Escherichia coli, UniProt P62593); experiment: β-lactamase inhibition, nitrocefin hydrolysis progress curves; format: biochemical; conditions: supplement CSV; incubation time not given, values correspond to 60 min
Sequence of E. coli TEM-1 (Class A) (P62593 24-286 limits assumed): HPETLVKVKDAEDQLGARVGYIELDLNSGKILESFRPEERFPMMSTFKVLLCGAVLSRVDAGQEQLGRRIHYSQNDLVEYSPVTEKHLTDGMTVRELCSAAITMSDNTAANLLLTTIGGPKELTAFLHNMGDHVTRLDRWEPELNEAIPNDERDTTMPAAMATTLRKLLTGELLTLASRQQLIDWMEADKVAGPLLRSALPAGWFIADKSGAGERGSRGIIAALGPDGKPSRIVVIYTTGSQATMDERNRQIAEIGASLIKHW

[3] = system: K. pneumoniae ARC561 (OKP-6, AmpC, OXA-2, SHV-18) ATCC700603; experiment: Broth microdilution MIC (BLI alone, cefpodoxime, cefpodoxime + BLI); format: cell-based; conditions: for MIC: Klebsiella pneumoniae, ATCC700603
[4] = system: E. coli ARC3627 (OXA-1, AmpC, CTX-M-15, TEM-1); experiment: as above; format: cell-based; conditions: for MIC: Escherichia coli
[5] = biological target: P. aeruginosa AmpC (Class C) (Pseudomonas aeruginosa, UniProt P24735); experiment: β-lactamase inhibition, nitrocefin hydrolysis progress curves; format: biochemical
Sequence of P. aeruginosa AmpC (Class C) (P24735 27-397): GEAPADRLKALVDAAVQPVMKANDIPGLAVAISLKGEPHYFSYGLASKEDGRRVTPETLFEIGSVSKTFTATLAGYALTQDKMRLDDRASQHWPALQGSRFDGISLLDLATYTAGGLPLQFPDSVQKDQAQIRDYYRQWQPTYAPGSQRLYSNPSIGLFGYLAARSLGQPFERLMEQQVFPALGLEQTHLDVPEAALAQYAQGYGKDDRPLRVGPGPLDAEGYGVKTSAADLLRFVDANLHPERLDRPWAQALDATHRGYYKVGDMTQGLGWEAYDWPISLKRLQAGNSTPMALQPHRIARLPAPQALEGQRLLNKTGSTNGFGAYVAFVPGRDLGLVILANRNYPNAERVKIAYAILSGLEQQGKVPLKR

[6] = Stability in liver S9 fraction; format: in vitro ADME, human; conditions: 37 °C; for Half-life, Human liver S9: 0.8 mg/mL protein, 10 μM
Protocol: (§1) Liver and intestinal S9 subcellular fractions (Xenotech) from rat and human tissue were diluted to a protein concentration of 0.8 mg/mL in 100 mM potassium phosphate buffer, pH 7.4, and preincubated in a 37 °C water bath for 5 min prior to addition of 10 μM (final) of compound of interest. Serial aliquots were removed at 0, 2, 5, 10, 20, 40, and 60 min and quenched in acetonitrile with internal standard prior to LC/MS/MS[30] to determine concentrations of prodrug. First order degradation half-lives were determined from the slope of the log–linear plots of the depletion data.

[7] = Stability in liver S9 fraction; format: in vitro ADME, rat; conditions: 37 °C; for Half-life, Rat liver S9: 0.8 mg/mL protein, 10 μM
Protocol: as §1

[8] = Stability in intestinal S9 fraction; format: in vitro ADME, rat; conditions: for half-life at 10 μM: rat, intestinal S9 fraction, pH 7.4
Protocol: as §1

[9] = Stability in intestinal S9 fraction; format: in vitro ADME, human; conditions: for half-life at 10 μM: human, intestinal S9 fraction, pH 7.4
Protocol: as §1

[10] = Buffer stability of ester prodrugs; format: physicochemical; conditions: potassium phosphate buffer pH 7.4, 37 °C; for Half-life, pH 7.4 buffer: 10 μM
Protocol: Buffer stability (potassium phosphate buffer, pH 7.4) was evaluated using the same protocol but without adding the S9 subcellular fractions.

[11] = Intravenous and oral pharmacokinetics in rats; conditions: rat, 10 mg/kg equivalent dose of ETX1317
[12] = Phase 1 clinical trials in healthy volunteers (NCT03491748); format: in vivo, human; conditions: alone or in combination with cefpodoxime proxetil
Protocol: (§2) The safety of ETX0282 was investigated with a 14-day toxicology study under Good Laboratory Practice (GLP) in rats and dogs following daily oral administration. The doses of 500 mg kg^–1 day^–1 and 400 mg kg^–1 day^–1 were established as the NOAELs (no observed adverse effect level) for rats and dogs, respectively.

[13] = 14-day GLP toxicology study, daily oral administration; conditions: in vivo
Protocol: as §2

[14] = biological target: K. pneumoniae OXA-48 (Class D) (Klebsiella pneumoniae, UniProt Q6XEC0); experiment: biochemical
Sequence of K. pneumoniae OXA-48 (Class D) (Q6XEC0 23-265, looked up): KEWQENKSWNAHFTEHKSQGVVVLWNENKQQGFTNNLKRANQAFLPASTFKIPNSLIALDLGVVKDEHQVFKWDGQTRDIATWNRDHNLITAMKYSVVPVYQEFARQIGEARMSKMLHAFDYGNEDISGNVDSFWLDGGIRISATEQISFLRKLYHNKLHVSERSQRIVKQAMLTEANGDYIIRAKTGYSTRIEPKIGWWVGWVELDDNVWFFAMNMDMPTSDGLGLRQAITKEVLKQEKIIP

[15] = system: MDR Enterobacterales clinical isolates; experiment: Broth microdilution MIC, statements over the isolate panel; format: cell-based; conditions: read-out: MIC across the clinical isolates of Table 6
Protocol: (§3) The potency and spectrum of β-lactamase inhibition by ETX1317 supported further antibacterial profiling in combination with β-lactams against relevant Gram-negative clinical isolates. Approved penicillins and cephalosporins administered orally were evaluated, using not only MIC as a criterion but also oral bioavailability, approved dose levels, and unbound plasma exposures. Cefpodoxime (CPD) emerged as the lead β-lactam candidate.[30] Its approved use as an orally bioavailable proxetil ester prodrug to treat UTI infections was also aligned with our potential target product profile. A fixed 1:2 ratio of cefpodoxime/ETX1317 was utilized as the testing paradigm for antimicrobial susceptibility. […] The addition of ETX1317 to CPD restored its activity to ≤0.5 μg/mL across all Enterobacterales isolates tested, including the CRE strains (identified by “a” in Table 6).
(§4) The broth microdilution susceptibility testing was conducted according to CLSI[39] using CAMHB. Durlobactam and avibactam were synthesized at Entasis Therapeutics. Cefpodoxime (catalog no. J66225) was purchased from Alfa Aesar.

[16] = system: E. coli ARC2687 (CTX-M-14, AmpC); experiment: Broth microdilution MIC; format: cell-based; conditions: Escherichia coli, agent alone
Protocol: as §3, §4

[17] = 0.8 mg/mL protein, 10 μM, 37 °C
[18] = species not given in the sentence, read-out: t1/2, stability to intestinal esterases

In the case of `NC(=O)[C@@H]1CC[C@@H]2CN1C(=O)N2OS(=O)(=O)O` [Avibactam, avibactam], the logD (log D) is given as < 0 and the “oral bioavailability F” value [1] is given as < 10%.
In the case of `COCC1=C(C(=O)OC(C)OC(=O)OC(C)C)N2C(=O)[C@@H](NC(=O)/C(=N\OC)c3csc(N)n3)[C@H]2SC1` (stereo partly drawn) [CPDP, cefpodoxime proxetil], the “efficacy in thigh model” value (E. coli ARC2687) is reported as “not efficacious”.
In the case of `CC1=C[C@@H]2CN(C(=O)N2OC(F)(F)C(=O)O)[C@@H]1C(N)=O` [Compound 2], the IC50 [2] is reported as < 15 nM and the IC50 (E. coli TEM-1 (Class A)) is reported as 0.001 µM.
With `CC1=C[C@@H]2CN(C(=O)N2O[C@H](F)C(=O)O)[C@@H]1C(N)=O` [Compound 4] the “fold reduction of cefpodoxime MIC compared to the MIC with no BLI” value ([3]; K. pneumoniae ARC561, BLI 4 μg/mL) was “greater than 128 fold”, the “fold reduction of cefpodoxime MIC compared to the MIC with no BLI” value ([4]; E. coli ARC3627, BLI 4 μg/mL) was “greater than 128 fold” and the IC50 (E. coli TEM-1 (Class A)) was 0.001 µM.
For `CC1=C[C@@H](C(N)=O)N2C[C@@H]1N(O[C@H](F)C(=O)O)C2=O` [Compound 13, (2R)-2-(((2S,5R)-2-Carbamoyl-4-methyl-7-oxo-1,6-diazabicyclo[3.2.1]oct-3-en-6-yl)oxy)-2-fluoroacetic Acid Lithium Salt], the IC50 ([5]; IC50 (µM) P. aeruginosa AmpC (Class C), supplement CSV, incubation time not given, values correspond to 60 min) was 0.16 µM, the MIC [3] was 16 µg/mL and the IC50 (E. coli TEM-1 (Class A)) was 0.003 µM.
`CC1=C[C@@H](C(N)=O)N2C[C@@H]1N(O[C@@H](F)C(=O)O)C2=O` [Compound 14] showed an MIC [4] of 0.5 µg/mL.
With `CCOC(=O)[C@@H](F)ON1C(=O)N2C[C@H]1C=C(C)[C@H]2C(N)=O` [Compound 15] the “Half-life, Human liver S9” value [6] was 6.5 min, the “Half-life, Rat liver S9” value [7] was 4.4 min and the “Half-life, Rat intestinal S9” value [8, 17] was 39 min. The “Half-life, Human intestinal S9” value [9, 17] was 38 min and the “Half-life, pH 7.4 buffer” value [10] was 41 min.
For `CC1=C[C@@H]2CN(C(=O)N2O[C@H](F)C(=O)OC(C)C)[C@@H]1C(N)=O` [Compound 16], the half-life at 10 μM [8, 18] was > 120 min and the half-life at 10 μM [9, 18] was > 120 min.
Work on `CCOC(=O)[C@H](F)ON1C(=O)N2C[C@H]1C=C(C)[C@H]2C(=O)NCCNS(N)(=O)=O` [Compound 19] yielded a half-life at 10 μM ([6]; human, liver S9 fraction, pH 7.4, 0.8 mg/mL protein) of 9.9 min, a half-life at 10 μM ([7]; rat, liver S9 fraction, pH 7.4, 0.8 mg/mL protein) of 10 min and a half-life at 10 μM ([8]; 0.8 mg/mL protein, 10 μM, 37 °C, read-out: Half-life, Rat intestinal S9) of 20 min. For the same compound, the half-life at 10 μM ([9]; 0.8 mg/mL protein, 10 μM, 37 °C, read-out: Half-life, Human intestinal S9) was 22 min and the half-life at 10 μM ([10]; potassium phosphate buffer without S9 fractions) was 26 min.
For `CCOC(=O)[C@H](F)ON1C(=O)N2C[C@H]1C(C)=C[C@H]2C(N)=O` [Compound 20], the “Half-life, Human liver S9” value [6] was 2.4 min, the “Half-life, Rat liver S9” value [7] was 2.4 min and the “Half-life, Rat intestinal S9” value [8, 17] was 18 min. For the same compound, the “Half-life, Human intestinal S9” value [9, 17] was 6.9 min and the “Half-life, pH 7.4 buffer” value [10] was 22 min.
With `CC1=C[C@@H](C(N)=O)N2C[C@@H]1N(O[C@@H](F)C(=O)OC(C)C)C2=O` [Compound 21] the “Half-life, Human liver S9” value [6] was 8.5 min, the “Half-life, Rat liver S9” value [7] was 3 min and the “Half-life, Rat intestinal S9” value [8, 17] was 68 min. The “Half-life, Human intestinal S9” value [9, 17] was 36 min and the “Half-life, pH 7.4 buffer” value [10] was 91 min.
With `CCOC(=O)[C@@H](F)ON1C(=O)N2C[C@H]1C(C)=C[C@H]2C(N)=O` [Compound 22, Ethyl (2R)-2-[[(2S,5R)-2-Carbamoyl-4-methyl-7-oxo-1,6-diazabicyclo[3.2.1]oct-3-en-6-yl]oxy]-2-fluoro-acetate] the “Half-life, Human liver S9” value [6] was 27 min, the “Half-life, Rat liver S9” value [7] was 20 min and the “Half-life, Rat intestinal S9” value [8, 17] was 42 min. The “Half-life, Human intestinal S9” value [9, 17] was 35 min and the “Half-life, pH 7.4 buffer” value [10] was 44 min.
For `CC1=C[C@@H](C(N)=O)N2C[C@@H]1N(O[C@H](F)C(=O)OC(C)C)C2=O` [Compound 23, (2R)-Isopropyl 2-(((2S,5R)-2-Carbamoyl-4-methyl-7-oxo-1,6-diazabicyclo[3.2.1]oct-3-en-6-yl)oxy)-2-fluoroacetate], the “Half-life, Human liver S9” value [6] was 39 min, the “Half-life, Rat liver S9” value [7] was 32 min and the “circulating concentrations of ETX0282 after oral ETX0282” value [11] was “no circulating concentrations of ETX0282 observed”. For the same compound, the serious adverse events [12] was “no serious adverse events reported”, the tolerability [12] was “generally well-tolerated” and the “Half-life, Rat intestinal S9” value [8, 17] was 240 min. The “Half-life, Human intestinal S9” value [9, 17] was 163 min, the NOAEL at 14 day ([13]; dog, dogs) was 400 mg/kg/day and the NOAEL at 14 day ([13]; rat, rats) was 500 mg/kg/day. The “Half-life, pH 7.4 buffer” value [10] was 186 min.
`CC1=C[C@@H]2CN(C(=O)N2OS(=O)(=O)O)[C@@H]1C(N)=O` [Durlobactam, durlobactam] showed an IC50 ([5]; IC50 10 min, P. aeruginosa AmpC (Class C), 10 min incubation) of 0.008 ± 0.003 µM, an IC50 ([5]; IC50 60 min, P. aeruginosa AmpC (Class C), 60 min incubation) of 0.0058 µM and an MIC [3] of 8 µg/mL. The logD (log D) was < 0, the “oral bioavailability F” value [1] was < 10% and the IC50 ([14]; IC50 10 min, 10 min incubation) was 24 ± 6 nM. The IC50 ([14]; IC50 60 min, 60 min incubation) was 5 nM and the MIC [4] was 0.25 µg/mL.
In the case of `COCC1=C(C(=O)O)N2C(=O)[C@@H](NC(=O)/C(=N\OC)c3csc(N)n3)[C@H]2SC1` [cefpodoxime], the MIC [15] is reported as > 64 µg/mL.
In the case of `C[C@H]1COc2c(N3CCN(C)CC3)c(F)cc3c(=O)c(C(=O)O)cn1c23` [levofloxacin], the MIC [16] is reported as > 4 µg/mL.
Work on `C[C@@H](O)[C@H]1C(=O)N2C(C(=O)O)=C(S[C@@H]3CN[C@H](C(=O)N(C)C)C3)[C@H](C)[C@H]12` [meropenem] yielded an MIC [16] of 0.03 µg/mL.
